These results are taken from patent publication US20070167427A1, “1,2,4-Triazolo[4,3-a]pyridines useful in the treatment of gastrointestinal disorders” (Altana Pharma AG, priority 2004, published 2007).

The structures appear in SMILES notation.

The test system of data set [1] is pentagastrin-stimulated acid secretion of the perfused rat stomach. In words: Secretion-inhibiting action on the perfused rat stomach (pentagastrin-stimulated acid secretion, intraduodenal administration in vivo). As to conditions: anesthetized female CD rat, dose 1.0 μmol/kg i.d. From the text:
Testing of the Secretion-inhibiting Action on the Perfused Rat Stomach
In Table A which follows, the influence of the compounds according to the invention on the pentagastrin-stimulated acid secretion of the perfused rat stomach after intraduodenal administration in vivo is shown.
The abdomen of anesthetized rats (CD rat, female, 200-250 g; 1.5 g/kg i.m. urethane) was opened after tracheotomy by a median upper abdominal incision and a PVC catheter was fixed transorally in the esophagus and another via the pylorus such that the ends of the tubes just projected into the gastric lumen. The catheter leading from the pylorus led outward into the right abdominal wall through a side opening.
After thorough rinsing (about 50-100 ml), warm (37° C.) physiological NaCl solution was continuously passed through the stomach (0.5 ml/min, pH 6.8-6.9; Braun-Unita I). The pH (pH meter 632, glass electrode EA 147; φ=5 mm, Metrohm) and, by titration with a freshly prepared 0.01N NaOH solution to pH 7 (Dosimat 665 Metrohm), the secreted HCl were determined in the effluent in each case collected at an interval of 15 minutes.
The gastric secretion was stimulated by continuous infusion of […] (=1.65 ml/h) of i.v. pentagastrin (left femoral vein) about 30 min after the end of the operation (i.e. after determination of 2 preliminary fractions). […]

With `CCc1cccc(C)c1CNc1cc(C(=O)NCCOC)cn2c(C)nnc12` [Example 4, 8-(2-Ethyl-6-methylbenzylamino)-N-(2-methoxyethyl)-3-methyl[1,2,4]triazolo-[4,3-a]pyridine-6-arboxamide], the “Inhibition of acid secretion” value in data set [1] is listed as over 30%.
On to `CCc1cccc(C)c1CNc1cc(C(=O)OC)cn2c(C)nnc12` [Example 1, 8-(2-Ethyl-6-methyl-benzylamino)-3-methyl[1,2,4]triazolo[4,3-a]pyridine-6-carboxylic acid methyl ester], for which the melting point – broadly, the temperature of the solid-liquid transition – is 214.4 °C.
For the compound `CCc1cccc(C)c1CNc1cc(C(=O)N(C)C)cn2c(C)nnc12` [Example 3, 8-(2-Ethyl-6-methylbenzylamino)-N,N,3-trimethyl[1,2,4]triazolo[4,3-a]pyridine-6-carboxamide], the melting point came out at 201.3 °C. For the same compound, the “Inhibition of acid secretion” value in data set [1] is listed as over 30%.
Turning to `CCc1cccc(C)c1CNc1cc(C(=O)O)cn2c(C)nnc12` [Example 2, 8-(2-Ethyl-6-methyl-benzylamino)-3-methyl[1,2,4]triazolo[4,3-a]pyridine-6-carboxylic acid], the melting point is 328.1 °C.
